Results published in patent US20250049914A1, “STEROID ACID-PEPTIDE BASED INTRACELLULAR CARGO DELIVERY” (DEFENCE THERAPEUTICS INC., priority 2021, published 2025).
Where no end group is shown, it is not given here.

Legend:
[1] = test system: mesenchymal stromal cells (MSCs); experiment: DQ OVA degradation/processing in MSCs, flow cytometry; type: cell-based; conditions: DQ OVA coincubated with conjugate, nine hours
Procedure: To evaluate OVA degradation/processing, cells were incubated with 10 µg/mL DQ™ OVA (with or without steroid acid-peptide modification) at 37° C. 30 minutes later, cells were washed, and regular media was added. At the end of the indicated incubation time, cells were collected and washed with cold PBS containing 2% FBS. Fluorescence was monitored by analyzing the cells by flow cytometry.
Mesenchymal stromal cells (MSCs) were incubated with either unconjugated fluorescently labeled OVA-AF647 alone or mixed with 45 μM of CA-HnRPA1 NLS steroid acid-peptide for nine hours and then intracellular OVA-AF647 delivery was assessed by flow cytometry as described in Example 1. […] The experiment was repeated with DQ™ OVA as cargo to evaluate the intracellular fate of the cargo delivered upon coincubation with CA-HnRPA1 NLS, as described in Example 4.

cpMSCs = experiment: OVA-DQ processing in cpMSCs, flow cytometry; type: cell-based; conditions: various molar ratios
Procedure: For this experiment, a cross-presenting mesenchymal stromal cell line (cpMSC) was used as the antigen presenting cells, which were pulsed with DQ™ Ovalbumin (i.e., OVADQ). OVADQ fluorescence was measured by flow cytometry. Different ratios of CA (NLS1 RSP17 [FIG. 17A]; NLS3 RPS17 [FIG. 17B]; and PQBP-1 [FIG. 17C] to antigen (CA: OVA=22:1, 12:1, 8:1, 4:1, and 2:1) were tested (hnRNPA1 M9 NLS at 2:1).
To further dissect the effect of bile acid peptide conjugates on antigen presentation, antigen internalization and processing were evaluated. cpMSCs were pulsed with OVA-labelled with AF647 in the presence of various molar ratios of different bile acid peptide conjugates, NLS1-RPS17 [FIG. 16A]; NLS3 RPS17 [FIG. 16B]; PQBP-1 [FIG. 16C]; and hnRNPA1 M9 NLS [FIG. 6]) and fluorescence was assessed by flow cytometry. […] OVA processing was assessed by pulsing cpMSCs with DQ™-Ovalbumin (OVA-DQ) in the presence of the same bile acid peptide conjugates as in FIGS. 6 and 16.

WT MSCs [2] = experiment: Antigen cross-presentation assay on wild-type MSCs with B3Z cells; type: cell-based, mouse
Procedure: In order to generate Bone marrow (BM)-derived mouse MSCs, the femurs of 6-8-week-old female Balb/c or C57BL/6 mice were isolated and flushed with Alpha Modification of Eagle's Medium (AMEM) supplemented with 10% FBS and 50 U/mL Penicillin-Streptomycin in a 10 cm cell culture dish, then incubated at 37° C. Two days later, non-adherent cells were removed and the media replaced every 3 to 4 days until plastic-adherent cells reached 80% confluency. The generated cells were detached using 0.05% trypsin and expanded until a uniform MSC population was obtained. The generated MSCs were validated for their innate phenotype by flow-cytometry for the expression of CD44, CD45, CD73, and CD90. The cells were frozen in liquid nitrogen until use.
To assess cross-presentation assay, 25×10^3 cells MSCs were seeded per well in 24-well plate then pulsed with steroid acid peptide-conjugated for 6 h admixed with OVA. At the end of the pulsing period, the cells were washed to remove excess antigen then 5×10^4 B3Z cells. The cells were incubated for 17-19 hours prior to their lysis and incubation for another 4-6 hours at 37° C. with a CPRG solution. The optical density signal was detected at wavelength 570 using a SynergyH1™ microplate reader (Biotek, Winooski, VT, United States).
To determine whether a similar effect occurs in wild type (WT) (i.e., non-engineered) MSCs, BM-derived MSCs (Example 1) were used instead in the same cross presentation assay with B3Z responder cells.

WT MSCs [3] = experiment: OVA-AF647 uptake by WT MSCs; type: cell-based, mouse; conditions: OVA-AF647 admixed with CA-hnRNPA1
Procedure: To evaluate OVA uptake, MSCs were first treated with […] of OVA-AF647 admixed with CA-hnRNPA1 for 1 hour at 37° C. then assessed for their fluorescence intensity by flow-cytometry. To evaluate antigen processing, MSCs were incubated with 10 µg/mL OVA-DQ® admixed with A1 at 37° C. Half an hour later, cells were washed, and regular media added. At the end of the indicated incubation time, cells were collected and washed with cold PBS containing 2% FBS. Fluorescence was monitored by flow cytometry.

MSCs = experiment: Cytokine and chemokine analysis (Luminex); type: cell-based, mouse; conditions: 50 μM CA-hnRNPA1, 6 h
Procedure: For cytokine and chemokine profiling, 15 cm cell culture dishes containing 80-90% confluent MSCs were grown in serum-free AMEM for 24 h at 37° C. and 5% CO2. MSCs were then treated with 50 μM of CA-hnRNPA1 in serum-free AMEM for 6 h. The supernatant was collected and fresh serum-free AMEM was replenished, without CA-hnRNPA1. After 24 h of the initial CA-hnRNPA1 treatment, the supernatant was collected and gathered with the previous one collected. Collected supernatants were then concentrated using the Amicon Ultra-4™ centrifugal filters (3000 NMWL) for 1 h at 4° C. Collected concentrates (80×) were then frozen at −80° C. until shipped to EveTechnologies™ (Calgary, AB, Canada) for cytokine/chemokine assessment by […].

human WT MSCs = experiment: OVA processing by human MSCs, flow cytometry; type: cell-based; conditions: CA-hnRNPA1-treated human MSCs

Q: What does the source list for “CA-hnRNPA1: cholic acid conjugated to hnRNPA1 M9 NLS peptide CSNFGPMKGGNFGGRSSGPY (SEQ ID NO: 4) (not fully specified (N-terminus); also: cholic acid conjugate, site not given here)”?
A: DQ OVA fluorescence (intracellular degradation/processing) ([1]; listed as CA-HnRPA1 NLS): sharp increase; DQ OVA fluorescence (intracellular degradation/processing) ([1]; listed as CA-hnRPA1 M9 NLS): increased intracellular degradation/processing; OVA processing (OVA-DQ fluorescence) (cpMSCs): enhance OVA processing; antigen cross-presentation with conjugate diluted in PBS or H2O (WT MSCs [2]; WT MSCs): enhancement; OVA cross presentation by WT MSCs (B3Z) (WT MSCs [2]; WT MSCs pulsed with OVA with or without conjugate): significantly enhanced; OVA uptake by WT MSCs (WT MSCs [3]): increase in OVA uptake; cytokine levels (Luminex) (MSCs): increases in various cytokines; OVA processing by human MSCs (human WT MSCs): increase of OVA processing
